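GI50 marks 50% less growth. TGI is the concentration that stops growth completely.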
How the values were obtained:
Test in all cases: NCI-60 cell line screen, 384-well format
SW-620 colon = system: SW-620 colon
SF-268 CNS = system: SF-268 CNS
SK-MEL-2 melanoma = system: SK-MEL-2 melanoma
HL-60(TB) leukemia = system: HL-60(TB) leukemia
HOP-62 NSCLC = system: HOP-62 NSCLC
OVCAR-4 ovarian = system: OVCAR-4 ovarian
MCF7 breast = system: MCF7 breast
MDA-MB-435 melanoma = system: MDA-MB-435 melanoma
MALME-3M melanoma = system: MALME-3M melanoma
SNB-75 CNS = system: SNB-75 CNS
BT-549 breast = system: BT-549 breast
SK-OV-3 ovarian = system: SK-OV-3 ovarian
SK-MEL-28 melanoma = system: SK-MEL-28 melanoma
TK-10 renal = system: TK-10 renal
ACHN renal = system: ACHN renal
NCI-H226 lung = system: NCI-H226 lung
SF-539 CNS = system: SF-539 CNS
SF-295 CNS = system: SF-295 CNS
CAKI-1 renal = system: CAKI-1 renal
UO-31 renal = system: UO-31 renal
DU-145 prostate = system: DU-145 prostate
U251 glioblastoma = system: U251 glioblastoma
SK-MEL-5 melanoma = system: SK-MEL-5 melanoma
OVCAR-5 ovarian = system: OVCAR-5 ovarian
A498 renal = system: A498 renal
HS 578T breast = system: HS 578T breast
MDA-MB-231 breast = system: MDA-MB-231 breast
M14 melanoma = system: M14 melanoma
OVCAR-8 ovarian = system: OVCAR-8 ovarian
NCI-H522 lung = system: NCI-H522 lung
COLO 205 colon = system: COLO 205 colon
EKVX NSCLC = system: EKVX NSCLC
MOLT-4 leukemia = system: MOLT-4 leukemia
UACC-257 melanoma = system: UACC-257 melanoma
A549 NSCLC = system: A549 NSCLC
HOP-92 NSCLC = system: HOP-92 NSCLC
KM12 colon = system: KM12 colon
SN12C renal = system: SN12C renal
SR leukemia = system: SR leukemia
NCI-H322M lung = system: NCI-H322M lung
SNB-19 CNS = system: SNB-19 CNS
NCI-H460 NSCLC = system: NCI-H460 NSCLC
HCT-116 colon = system: HCT-116 colon
NCI-H23 lung = system: NCI-H23 lung
PC-3 prostate = system: PC-3 prostate
MDA-MB-468 breast = system: MDA-MB-468 breast
RXF 393 renal = system: RXF 393 renal
T-47D breast = system: T-47D breast
HT29 colon = system: HT29 colon
K-562 leukemia = system: K-562 leukemia
UACC-62 melanoma = system: UACC-62 melanoma
786-0 renal = system: 786-0 renal
HCT-15 colon = system: HCT-15 colon
IGROV1 ovarian = system: IGROV1 ovarian
OVCAR-3 ovarian = system: OVCAR-3 ovarian

Cn1cc(-c2ccc(CNc3cc(-c4cnc5cc(OCCCN6CCCC6)ccn45)ncn3)cc2)cn1
GI50 (SW-620 colon): 1.69 µM
TGI (SW-620 colon): 3.09 µM
GI50 (SF-268 CNS): 1.85 µM
TGI (SF-268 CNS): 3.28 µM
GI50 (SK-MEL-2 melanoma): 1.84 µM
TGI (SK-MEL-2 melanoma): 3.24 µM
GI50 (HL-60(TB) leukemia): 1.56 µM
TGI (HL-60(TB) leukemia): 2.9 µM
GI50 (HOP-62 NSCLC): 1.63 µM
TGI (HOP-62 NSCLC): 3 µM
GI50 (OVCAR-4 ovarian): 1.55 µM
TGI (OVCAR-4 ovarian): 2.91 µM
GI50 (MCF7 breast): 1.36 µM
TGI (MCF7 breast): 2.67 µM
GI50 (MDA-MB-435 melanoma): 1.77 µM
TGI (MDA-MB-435 melanoma): 3.17 µM
GI50 (MALME-3M melanoma): 1.83 µM
TGI (MALME-3M melanoma): 3.23 µM
GI50 (SNB-75 CNS): 1.79 µM
TGI (SNB-75 CNS): 3.19 µM
GI50 (BT-549 breast): 1.62 µM
TGI (BT-549 breast): 2.98 µM
GI50 (SK-OV-3 ovarian): 1.8 µM
TGI (SK-OV-3 ovarian): 3.21 µM
GI50 (SK-MEL-28 melanoma): 1.82 µM
TGI (SK-MEL-28 melanoma): 3.22 µM
GI50 (TK-10 renal): 1.78 µM
TGI (TK-10 renal): 3.18 µM
GI50 (ACHN renal): 1.81 µM
TGI (ACHN renal): 3.21 µM
GI50 (NCI-H226 lung): 1.69 µM
TGI (NCI-H226 lung): 3.06 µM
GI50 (SF-539 CNS): 1.18 µM
TGI (SF-539 CNS): 2.41 µM
GI50 (SF-295 CNS): 1.81 µM
TGI (SF-295 CNS): 3.22 µM
GI50 (CAKI-1 renal): 1.86 µM
TGI (CAKI-1 renal): 3.26 µM
GI50 (UO-31 renal): 1.75 µM
TGI (UO-31 renal): 3.14 µM
GI50 (DU-145 prostate): 1.82 µM
TGI (DU-145 prostate): 3.34 µM
GI50 (U251 glioblastoma): 1.79 µM
TGI (U251 glioblastoma): 3.2 µM
GI50 (SK-MEL-5 melanoma): 1.49 µM
TGI (SK-MEL-5 melanoma): 2.82 µM
GI50 (OVCAR-5 ovarian): 1.69 µM
TGI (OVCAR-5 ovarian): 3.09 µM
GI50 (A498 renal): 1.78 µM
TGI (A498 renal): 3.18 µM
GI50 (HS 578T breast): 1.58 µM
TGI (HS 578T breast): 2.93 µM
GI50 (MDA-MB-231 breast): 1.61 µM
TGI (MDA-MB-231 breast): 2.97 µM
GI50 (M14 melanoma): 1.84 µM
TGI (M14 melanoma): 3.24 µM
GI50 (OVCAR-8 ovarian): 1.72 µM
TGI (OVCAR-8 ovarian): 3.11 µM
GI50 (NCI-H522 lung): 2.09 µM
TGI (NCI-H522 lung): 3.53 µM
GI50 (COLO 205 colon): 2.01 µM
TGI (COLO 205 colon): 3.45 µM
GI50 (EKVX NSCLC): 1.67 µM
TGI (EKVX NSCLC): 3.06 µM
GI50 (MOLT-4 leukemia): 1.5 µM
TGI (MOLT-4 leukemia): 2.83 µM
GI50 (UACC-257 melanoma): 1.53 µM
TGI (UACC-257 melanoma): 2.87 µM
GI50 (A549 NSCLC): 1.82 µM
TGI (A549 NSCLC): 3.23 µM
GI50 (HOP-92 NSCLC): 1.84 µM
TGI (HOP-92 NSCLC): 3.25 µM
GI50 (KM12 colon): 1.85 µM
TGI (KM12 colon): 3.29 µM
GI50 (SN12C renal): 1.77 µM
TGI (SN12C renal): 3.16 µM
GI50 (SR leukemia): 1.69 µM
TGI (SR leukemia): 3.07 µM
GI50 (NCI-H322M lung): 1.92 µM
TGI (NCI-H322M lung): 3.57 µM
GI50 (SNB-19 CNS): 1.74 µM
TGI (SNB-19 CNS): 3.41 µM
GI50 (NCI-H460 NSCLC): 1.32 µM
TGI (NCI-H460 NSCLC): 2.62 µM
GI50 (HCT-116 colon): 1.63 µM
TGI (HCT-116 colon): 3.02 µM
GI50 (NCI-H23 lung): 11.3 µM
TGI (NCI-H23 lung): 23.5 µM
GI50 (PC-3 prostate): 1.7 µM
TGI (PC-3 prostate): 3.28 µM
GI50 (MDA-MB-468 breast): 1.8 µM
TGI (MDA-MB-468 breast): 3.21 µM
GI50 (RXF 393 renal): 1.53 µM
TGI (RXF 393 renal): 2.87 µM
GI50 (T-47D breast): 1.9 µM
TGI (T-47D breast): 3.33 µM
GI50 (HT29 colon): 0.969 µM
TGI (HT29 colon): 2.15 µM
GI50 (K-562 leukemia): 1.5 µM
TGI (K-562 leukemia): 2.85 µM
GI50 (UACC-62 melanoma): 1.83 µM
TGI (UACC-62 melanoma): 3.23 µM
GI50 ([…]-0 renal): 1.54 µM
TGI (786-0 renal): 2.89 µM
GI50 (HCT-15 colon): 1.77 µM
TGI (HCT-15 colon): 3.2 µM
GI50 (IGROV1 ovarian): 1.88 µM
TGI (IGROV1 ovarian): 3.34 µM
GI50 (OVCAR-3 ovarian): 1.84 µM
TGI (OVCAR-3 ovarian): 3.25 µM
